Where “and” joins values, the source holds several entries; their conditions need not be identical. Equal entries are not always repeated.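 Results reflect a 48-hour exposure of cells in 96-well plates to compound at five concentrations. GI50 = concentration required for 50% inhibition of growth. TGI denotes the concentration required for complete inhibition of growth.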
Experiments:
Assay in all cases: NCI-60 cell line screen, 48 h
IGROV1 ovarian = system: IGROV1 ovarian
DU-145 prostate = system: DU-145 prostate
T-47D breast = system: T-47D breast
SK-MEL-2 melanoma = system: SK-MEL-2 melanoma
TK-10 renal = system: TK-10 renal
SF-295 CNS = system: SF-295 CNS
RPMI-8226 leukemia = system: RPMI-8226 leukemia
A498 renal = system: A498 renal
SK-MEL-28 melanoma = system: SK-MEL-28 melanoma
NCI-H460 lung = system: NCI-H460 lung

| Structure (SMILES) | GI50 (IGROV1 ovarian) [µM] | TGI (IGROV1 ovarian) | GI50 (DU-145 prostate) [µM] | TGI (DU-145 prostate) | GI50 (T-47D breast) [µM] | TGI (T-47D breast) [µM] | GI50 (SK-MEL-2 melanoma) | TGI (SK-MEL-2 melanoma) | GI50 (TK-10 renal) [µM] | TGI (TK-10 renal) | GI50 (SF-295 CNS) [µM] | TGI (SF-295 CNS) | GI50 (RPMI-8226 leukemia) [µM] | TGI (RPMI-8226 leukemia) | GI50 (A498 renal) [µM] | TGI (A498 renal) | GI50 (SK-MEL-28 melanoma) | TGI (SK-MEL-28 melanoma) [µM] | GI50 (NCI-H460 lung) | TGI (NCI-H460 lung) |
| --- | --- | --- | --- | --- | --- | --- | --- | --- | --- | --- | --- | --- | --- | --- | --- | --- | --- | --- | --- | --- |
| C#C[C@]1(O)CC[C@H]2[C@@H]3CC=C4c5nc(N)sc5CC[C@]4(C)[C@H]3CC[C@@]21C | 4.83 | 25.9 µM | 5.19 | 20.8 µM | 3.98 | 29.7 | 2.72 µM | 7.57 µM | 11.3 | 39.4 µM | 1.98 | 4.05 µM | 1.57 | 4.73 µM | 1.96 | 4.21 µM | 1.9 µM | 4.67 | 3.78 µM | 16.4 µM |
| NC(=O)/C(=C/n1cnc(-c2cc(C(F)(F)F)cc(C(F)(F)F)c2)n1)c1cncnc1 | 0.696 | 14.7 µM | 0.625 | 12.2 µM | 0.116 | 11.8 | 0.353 µM | 5.75 µM | 0.986 | 13.5 µM | 0.667 | 17.1 µM | 0.102 | 9.53 µM | 0.0848 | 1.26 µM | 0.503 µM | 11.7 | 0.187 µM | 5.61 µM |
| CC(C)OP(=O)(O)c1ncc(-c2ccc(C(F)(F)F)cc2)c(NC2CCCCCC2)n1 | > 100 | > 100 µM | > 100 | > 100 µM | 34.9 | > 100 |  |  | > 100 | > 100 µM | > 100 | > 100 µM | 20.9 | > 100 µM | > 100 | > 100 µM | > 100 µM | > 100 | > 100 µM | > 100 µM |
| CCOc1ccc2cc(-c3nn(CC4CCNCC4)c4ncnc(N)c34)ccc2c1 | 11.7 | 27.8 µM | 19.1 | 55.6 µM | 18.2 | 50.5 | 15.8 µM | 29.8 µM | 16.8 | 38.8 µM | 14.8 | 29.5 µM | 14 | 34.6 µM | 11.2 | 24.9 µM | 16.1 µM | 30.2 | 16.8 µM | 32.8 µM |
| CC1OC(OC2C(O)C(O)C(O)C(O)C2O)C(N)CC1N=C(N)C(=O)O (centres undefined) |  | > 100 µM |  | > 100 µM |  | > 100 |  | > 100 µM |  | > 100 µM |  | > 100 µM |  | > 100 µM |  | > 100 µM |  | > 100 |  | > 100 µM |
| C=C1C[C@@H]2O[C@H]3[C@H]4[C@@H](CC[C@@](C)(OC(=O)CCC)[C@H]42)[C@@H](C)C(=O)O[C@@]3(C)CC[C@H]1OO | 17.8 | 35.6 µM | 18 | 32.8 µM | 21.4 | 40 | 52.2 µM | > 100 µM | 26.1 | 49.4 µM | 17.8 | 36.1 µM | 14 | 28.8 µM | > 100 | > 100 µM | 20 µM | 35.4 | 19.3 µM | 35.8 µM |
| COc1ccc(C(O)c2cc3c(N)c(C(=O)Nc4cccc(Br)c4C)sc3nc2C)cc1 (centres undefined) | 0.375 | 18.8 µM | 0.135 | 4.54 µM | 0.346 | > 33.3 | 1.17 µM | > 33.3 µM | 4.21 | > 24.4 µM | 0.133 | 6.14 µM | 0.167 | > 33.3 µM | 0.082 | 1.28 µM | 5.2 µM | > 33.3 | 0.121 µM | 1.65 µM |
| CC1(C)C2CCC13C(=O)C1OC3(C2)C2C(=O)c3c(ccc4c3ccc3ccccc34)C(=O)C12 (centres undefined) | > 100 | > 100 µM | > 100 | > 100 µM | 48 | > 100 | > 100 µM | > 100 µM | > 87.5 | > 100 µM | 13.2 | 92.6 µM | 19.2 | > 60 µM | > 100 | > 100 µM | > 84.3 µM | > 100 | 57.3 µM | > 100 µM |
| CCOC(=O)/C(=C\c1ccc2ccccc2c1)P(=O)(OCC)OCC | 3 | 8.94 µM | 2.63 | 9.32 µM | 2.55 | 9.09 | 2.16 µM | 5.22 µM | 2.85 | 8.97 µM | 4.76 | 16.2 µM | 2.27 | 6.54 µM | 3.73 | 10.9 µM | 2.95 µM | 8.06 | 2.71 µM | 9.2 µM |
| NCCCN=c1ccc2c3c1c(O)c1c(O)ccc(=O)c1c3[nH]n2CCNCCO |  | 15.4 µM and 129 µM | 1 | 5.57 µM and 8.3 µM |  | 15.8 | 3.28 µM and 1.08 µM | 8.18 µM and 4.08 µM | 6.59 | 21.3 µM and 77.7 µM | 1.06 | 7.44 µM and 39.9 µM | 2.93 | 9.94 µM and 22.3 µM |  | 7.19 µM and 8.57 µM | 5.48 µM and 6.41 µM |  | 0.117 µM and 0.12 µM | 3.66 µM and 15.7 µM |
| CCOC(=O)c1c(CN2CCN(C)CC2)nc2ccc(Cl)cc2c1-c1ccccc1 | 7.14 | 19.9 µM | 13.7 | 26.7 µM | 9.41 | 24.4 | 12.9 µM | 26.2 µM | 5.11 | 13.6 µM | 3.27 | 9.95 µM | 2.98 | 12.7 µM | 4.75 | 17.2 µM | 1.74 µM | 3.19 | 3.9 µM | 13 µM |
| Cc1nc2ccccc2c(=O)n1/N=C(\N=Nc1cc(Cl)ccc1Cl)c1ccccc1 |  | > 100 µM |  | > 100 µM |  | > 100 |  | > 100 µM |  | > 100 µM |  | > 100 µM |  | > 100 µM |  | > 100 µM |  | > 100 |  | > 100 µM |

Reference: PubChem BioAssay (NCI)
